Experimental findings from patent publication US8436160B2, “Isolated DNA fragment of the SPARC human promoter and its use for driving the expression of an heterologous gene in tumor cells” (Consejo Nacional de Investigaciones Cientificas y Tecnicas …, priority 2006, dated 2013) are described below.

Data set [1] has as its system hMEC-1 cells. Kind of data set: Ad(I)-F512-TK lytic effect in monolayer with GCV prodrug. It counts as cell-based, human. The procedure: (§1) According to the present inventors' hypothesis, normal cells have more resistance to viral replication. In this case, adding a toxic gene would allow for the enhancement of the lytic capability in a specific manner in those cells wherein the SPARC promoter was active. Thus, in vitro assays with Ad(I)-F512-TK were carried out, in which the cells were also treated by adding ganciclovir (GCV) prodrug. […] Other analyzed endothelial cells were those of bovine aorta (BAEC, kindly provided by Helene Sage, Seattle, USA).

The test system of data set [2] is BAEC cells. The data set is described as above. Type of data set: cell-based, Bovine. The method, then: as §1
Data set [3] concerns melanoma line MEL888. Kind of data set: Luciferase reporter promoter activity. Type of data set: cell-based, human. The procedure:
(§2) The cells were seeded in 24-well plates with a density of 4×10^4 cells/well. After 24 hours they were transfected using Lipofectamine2000 (Invitrogen Corp., Carlsbad, Calif.) according to the conditions indicated by the manufacturer. Each treatment was carried out at least in duplicate for each cell line, incubating 0.8 μg of treatment plasmid with 0.1 μg of pRL-CMV plasmid for 5 minutes with 50 μl DMEM medium without antibiotic and simultaneously, 1 μl Lipofectamine2000 with 50 μl of the same medium. These two preparations were mixed and incubated for 20 minutes at room temperature. The medium with cell serum was removed, washed with PBS and 200 μl high glucose DMEM was added without serum and without antibiotics; subsequently, 100 μl medium containing the lipofection mixture was added and 800 μl of culture medium corresponding to each cell line, supplemented with BFS, was added 4 hours later. The cells used were kept in a stove for 46 hours at 37° C. with 5% CO2. The Dual Luciferase Reporter Assay System kit (Promega Corp., Madison, Wis.) was used for the luciferase assay. This system implies the simultaneous expression of two individual reporter enzymes in the same system, allowing for the evaluation of the activity produced by the luciferase enzymes from the Firefly glow-worm (Photinus pyralis) and the Renilla coelenterate (Renilla reniformis) in only one sequential assay (Sherf, B. A. et al., Dual Luciferase Reporter Assay: An Advanced Co-Reporter Technology Integrating Firefly and Renilla Luciferase Assays. Promega Notes Magazine: 2-9, 1996). The data were normalized in the following way:
(§3) The data are expressed as induction amount relative to the activity obtained with the pGL3-Basic control plasmid (without promoter). The pGl3-promoter plasmid (pGL3-prom, Promega Corp., Madison, Wis.) wherein the viral promoter from SV40 drives the expression of the luciferase enzyme, was used as a transfection control.
(§4) The two promoters F512 and Spdel, having similar promoter activity and as identified by the method of Example 3A, were assessed in different tumor and normal cell lines (see references in Example 1).

The test system of data set [4] is A375N (melanoma), HeLa (cervix) and T-47D (breast) cell lines. Kind of data set: Luciferase reporter promoter activity of SPARC promoter fragments. Type of data set: cell-based, human. To be noted: pGL3 constructs; relative to pGL3-Basic; A375N expresses SPARC, HeLa and T-47D do not.
Description: The promoters obtained according to Example 2 were subcloned in the MluI/BglII, MluI/XhoI or NheI/XhoI sites of the pGL3-Basic plasmid (Promega Corp., Madison, Wis., USA) upstream of the luciferase reporter gene. All of the clonings was confirmed by restriction profiles and by sequencing the vectors (pGEM, TOPO and/or pGL3) with the universal primers T7 (TACGACTCACTATAGGG; SEQ ID NO 27); Sp6 (ATTTAGGTGACACTATAG; SEQ ID NO 28), T3 ([…]; SEQ ID NO 29) or P2 ([…]; SEQ ID NO 30) and P3 ([…]; SEQ ID NO 31).
The presence of the luciferase reporter gene allowed for the quantification of SPARC promoter activity in the 11 fragments obtained in Example 2, by measuring the luciferase enzymatic activity. The assay was performed in three cell lines, using the (melanoma) A375N line as a model since it expresses high SPARC levels and the (cervix) HeLa and (breast) T-47D lines, not expressing SPARC, according to the teachings of Example 1 above.
as §2
(§5) The data are expressed as induction amount relative to the activity obtained with the pGL3-Basic control plasmid (without promoter). […]
A general note: In a reporter assay the amount or activity of a reporter protein is the signal.

Data set [5] has as its system different tumor and normal cell lines. In words: Luciferase reporter promoter activity, F512 vs Spdel. It counts as cell-based. Particulars: for promoter activity across cell lines vs SPARC expression: melanoma, colon (T84, LoVo), glioma (U87), cervix (HeLa). The procedure: as §2, §5, §4
The test system of data set [6] is fibroblast line WI-38 VA. Kind of data set: Luciferase reporter promoter activity. It counts as cell-based, human. The method, then:
as §2, §3, §4

Data set [7] deals with T84. Kind of data set: Luciferase reporter promoter activity. It counts as cell-based, human. The method, then: as §2, §3, §4
In data set [8] the test system is SB2 line. Kind of data set: Luciferase reporter promoter activity. It counts as cell-based, human. The procedure:
as §2, §3, §4

The test system of data set [9] is endothelium BAEC line. In words: Luciferase reporter promoter activity. It counts as cell-based, Bovine. The method, then: The cells were seeded in 24-well plates with a density of 4×10^4 cells/well. After 24 hours they were transfected using Lipofectamine2000 (Invitrogen Corp., Carlsbad, Calif.) according to the conditions indicated by the manufacturer. Each treatment was carried out at least in duplicate for each cell line, incubating 0.8 μg of treatment plasmid with 0.1 μg of pRL-CMV plasmid for 5 minutes with 50 μl DMEM medium without antibiotic and simultaneously, 1 μl Lipofectamine2000 with 50 μl of the same medium. These two preparations were mixed and incubated for 20 minutes at room temperature. The medium with cell serum was removed, washed with PBS and 200 μl high glucose DMEM was added without serum and without antibiotics; subsequently, 100 μl medium containing the lipofection mixture was added and 800 μl of culture medium corresponding to each cell line, supplemented with BFS, was added 4 hours later. The cells used were kept in a stove for 46 hours at 37° C. with 5% CO2. […]
as §5, §4

In the case of `Nc1nc(O)c2ncn(COC(CO)CO)c2n1` [GCV, ganciclovir], the “sensitivity of cells to prodrug alone” value in [1] was “sensitive to the presence of the prodrug alone”. In addition, the “sensitivity of cells to prodrug” value in data set [2] is recorded as “sensitive to the prodrug”.
In the case of “Spdel: complete SPARC promoter −1175/+71 with the 10 bp between the two GGA boxes deleted, SEQ ID NO 18”, the “promoter activity with respect to the empty vector pGL3-Basic” value in data set [3] is given as 430 times higher; in [5] (average, both in tumor and normal lines), 140 times higher. In [4], the “promoter activity and specificity (luciferase)” value is “same activity than F512, in the A375N melanoma line”. Moreover, the “promoter activity across cell lines vs SPARC expression” value in data set [5] is on record as “same activity in all lines”.
As to “−1175/+71: complete human SPARC promoter, SEQ ID NO 17”, the “promoter activity and specificity (luciferase)” value in data set [4] is on record as “lower promoter activity in melanoma lines”.

B1: −120/+71: SPARC promoter fragment including the complete first exon, SEQ ID NO 24 (nucleic acid, listed as Homo sapiens)
DNA: GGGAGAAGGAGGAGGCCGGGGGAAGGAGGAGACAGGAGGAGGAGGGACCACGGGGTGGAGGGGAGATAGACCCAGCCCAGAGCTCTGAGTGGTTTCCTGTTGCCTGTCTCTAAACCCCTCCACATTCCCGCGGTCCTTCAGACTGCCCGGAGAGCGCGCTCTGCCTGCCGCCTGCCTGCCTGCCACTGAGG
For the molecule B1, the “promoter activity and specificity (luciferase)” value in data set [4] is “higher unspecificity”.

B2: F512: human SPARC promoter fragment from base pair −513 to +35, SEQ ID NO 1 (nucleic acid, listed as Homo sapiens)
DNA: GCAGCTTGTCTTGTCTGTACAGTGGTAAGTCCTGGCCTTGCCTTTGTGGCAAATACAACCCCCTTGAATTGCTTGGCCCTTCTCAGCATTGCCTAATATTAGGGAGGACTCCTGTAAAGCTCACTGGTTAGAAGATCAAGACACTTGGGCCTGGTTCTGCCCCTGGGGGCCATTGGGTAATTCCTTGCAGTCTCCAGGCCTCACTTGCCCTCTGAACAAGAAAGAGGCTGTTCTGGGTCATCCCTCCAGGCCTGTCCAGCCCTGGCACTCTGTGAGTCGGTTTAGGCAGCAGCCCCGGAACAGATGAGGCAGGCAGGGTTGGGACGTTTGGTCAGGACAGCCCACCGCAAAAAGAGGAGGAAAGAAATGAAAGACAGAGACAGCTTTGGCTATGGGAGAAGGAGGAGGCCGGGGGAAGGAGGAGACAGGAGGAGGAGGGACCACGGGGTGGAGGGGAGATAGACCCAGCCCAGAGCTCTGAGTGGTTTCCTGTTGCCTGTCTCTAAACCCCTCCACATTCCCGCGGTCCTTCAGACTGCCCGGAGAGC
modifications: DNA fragment of the SPARC human promoter.
With B2, the promoter activity entry in data set [6] and in [9] was “active” throughout. The “promoter activity relative to melanoma lines” value in data set [7] is given as “half the activity observed for the melanoma lines”. Besides, the “promoter activity relative to the activity observed in A375N” value in data set [8] was “approximately ⅓”. Also, the “promoter activity and specificity (luciferase)” value in [4] is “higher specificity and higher activity in the line expressing SPARC”. Moreover, the “promoter activity across cell lines vs SPARC expression” value in data set [5] was “lower activity in those lines with little or null SPARC expression”.
